The test system of this assay is THP1 cells. Kind of assay: Alkaline comet assay in THP1 cells. The assay is classed as cell-based, human. The protocol:
Comet assays: DNA damage in individual cells was assessed using OxiSelect™ Comet Assay Kits (Cell Biolabs, Cat #STA-351) according to the manufacturer's protocol. THP1 cells were treated as indicated, collected by centrifugation, washed twice with ice-cold PBS, and resuspended in cold PBS at 1×10^5 cells/ml. Cells were mixed with molten Comet agarose (1:10, v/v) and immediately transferred to wells of the Comet Agarose Base Layer (pre-prepared by adding 75 μl molten agarose to Comet slides) in 75 μl aliquots. Cells were embedded on the agarose by cooling the gel at 4° C. for 15 minutes in the dark and then lysed in pre-chilled lysis buffer for 60 minutes at 4° C. The cell-containing slides were neutralized in pre-chilled alkaline buffer for 30 minutes and then carefully transferred to a horizontal electrophoresis chamber. Electrophoresis was conducted in cold Alkaline Electrophoresis Solution (300 mM NaOH, pH>13, 1 mM EDTA) for 30 minutes at 1 volt/cm (300 mA current). The samples were washed three times in pre-chilled water and immersed in 70% ethanol for 5 minutes. The cells were subsequently air dried and their DNA stained with 100 μl/well of diluted Vista Green DNA Dye. After incubating at room temperature, cells were finally visualized under a fluorescence microscope using an FITC filter. Comet length was quantified using OpenComet software as described before (Gyori et al., 2014).

Molecules are shown by their SMILES.

For the compound `Nc1nc2c(ncn2[C@@H]2O[C@@H]3COP(=O)(O)O[C@H]4[C@@H](O)[C@H](n5cnc6c(N)ncnc65)O[C@@H]4COP(=O)(O)O[C@@H]2[C@@H]3O)c(=O)[nH]1` [cGAMP, cyclic guanosine monophosphate-adenosine monophosphate], the “camptothecin-induced DNA damage (comet tail length)” value (THP1, cGAMP 6 hours then 1 μM camptothecin 16 hours) was “exacerbates camptothecin-induced DNA damage”. Under “THP1 cells, cGAMP 16 hours”, the “DNA strand breaks in comet assay” value was “no strand breaks were observed”.

The values above are taken from patent US20240335465A1 (University of Virginia Patent Foundation, priority 2021, published 2024).
